System: solid malignant tumors
Assay: GEN1046 Phase I dose escalation (NCT03917381), response by RECIST v1.1
Type: in vivo, human
Details: for CR (Complete Response), patients / Confirmed CR (Complete Response), patients / Confirmed Disease Control (PR + PR + SD) Rate, % / Confirmed Disease Control (PR + PR + SD) Rate, patients / Confirmed NE (Not Evaluable), % of patients / Confirmed NE (Not Evaluable), patients / Confirmed Objective Response (CR + PR) Rate, patients / Confirmed PD (Progressive Disease), % of patients / Confirmed PD (Progressive Disease), patients / Confirmed PR (Partial Response), patients / Confirmed SD (Stable Disease), % of patients / Confirmed SD (Stable Disease), patients / Disease Control (PR + PR + SD) Rate, % / Disease Control (PR + PR + SD) Rate, patients / NE (Not Evaluable), % of patients / NE (Not Evaluable), patients / Objective Response (CR + PR) Rate, patients / PD (Progressive Disease), % of patients / PD (Progressive Disease), patients / PR (Partial Response), patients / Confirmed Objective Response (CR + PR) Rate, % / Confirmed PR (Partial Response), % of patients / Objective Response (CR + PR) Rate, % / PR (Partial Response), % of patients: Oct. 12, 2020; for BOR Complete Response, (percent) / BOR Complete Response, patients / BOR Partial Response, (percent) / BOR Partial Response, patients / BOR Progressive Disease, (percent) / BOR Progressive Disease, patients / BOR Stable Disease, (percent) / BOR Stable Disease, patients: 3 Feb. 2020
Excerpt: The resistance to, failure to respond to and/or relapse from treatment with a binding agent of the invention and/or other therapeutic agent(s) may be determined according to the Response Evaluation Criteria In Solid Tumors; version 1.1 (RECIST Criteria v1.1).
The “best overall response” is the best response recorded from the start of the treatment until disease progression/recurrence (the smallest measurements recorded since the treatment started will be used as the reference for PD). Subjects with CR or PR are considered to be objective response. Subjects with CR, PR or SD are considered to be in disease control. Subjects with NE are counted as non-responders. […]
Clinical trial on GCT1046-01 (ClinicalTrials.gov Identifier: NCT03917381) was designed as a two-part trial, including an ongoing dose escalation part and a planned expansion part.
The trial consists of 2 parts; a First-in-Human (FIH) dose escalation (Phase I) and an expansion (Phase 11a).
For dose escalation, subject was required to be a man or […] and was required to have measurable disease according to RECIST 1.1.

GEN1046: PD-L1×4-1BB bispecific antibody: PD-L1-547-FEAL combined with CD137-009-HC7LC2-FEAR (SEQ ID NOs: 1, 5, 21, 19; 8, 12, 22, 20)
CR (Complete Response), patients (25 mg (N 4)): 0 | Confirmed CR (Complete Response), patients (25 mg (N 4)): 0 | Confirmed Disease Control (PR + PR + SD) Rate, % (25 mg (N 4)): 25.0% | Confirmed Disease Control (PR + PR + SD) Rate, patients (25 mg (N 4)): 1 | Confirmed NE (Not Evaluable), % of patients (25 mg (N 4)): 25.0% | Confirmed NE (Not Evaluable), patients (25 mg (N 4)): 1 | Confirmed Objective Response (CR + PR) Rate, patients (25 mg (N 4)): 0 | Confirmed PD (Progressive Disease), % of patients (25 mg (N 4)): 50.0% | Confirmed PD (Progressive Disease), patients (25 mg (N 4)): 2 | Confirmed PR (Partial Response), patients (25 mg (N 4)): 0 | Confirmed SD (Stable Disease), % of patients (25 mg (N 4)): 25.0% | Confirmed SD (Stable Disease), patients (25 mg (N 4)): 1 | Disease Control (PR + PR + SD) Rate, % (25 mg (N 4)): 25.0% | Disease Control (PR + PR + SD) Rate, patients (25 mg (N 4)): 1 | NE (Not Evaluable), % of patients (25 mg (N 4)): 25.0% | NE (Not Evaluable), patients (25 mg (N 4)): 1 | Objective Response (CR + PR) Rate, patients (25 mg (N 4)): 0 | PD (Progressive Disease), % of patients (25 mg (N 4)): 50.0% | PD (Progressive Disease), patients (25 mg (N 4)): 2 | PR (Partial Response), patients (25 mg (N 4)): 0 | BOR Complete Response, (percent) (25 mg (n = 2)): (0) | BOR Complete Response, patients (25 mg (n = 2)): 0 | BOR Partial Response, (percent) (25 mg (n = 2)): (0) | BOR Partial Response, patients (25 mg (n = 2)): 0 | BOR Progressive Disease, (percent) (25 mg (n = 2)): (100) | BOR Progressive Disease, patients (25 mg (n = 2)): 2 | BOR Stable Disease, (percent) (25 mg (n = 2)): (0) | BOR Stable Disease, patients (25 mg (n = 2)): 0 | CR (Complete Response), patients (50 mg (N 5)): 0 | Confirmed CR (Complete Response), patients (50 mg (N 5)): 0 | Confirmed Disease Control (PR + PR + SD) Rate, % (50 mg (N 5)): 60.0% | Confirmed Disease Control (PR + PR + SD) Rate, patients (50 mg (N 5)): 3 | Confirmed NE (Not Evaluable), patients (50 mg (N 5)): 0 | Confirmed Objective Response (CR + PR) Rate, patients (50 mg (N 5)): 0 | Confirmed PD (Progressive Disease), % of patients (50 mg (N 5)): 40.0% | Confirmed PD (Progressive Disease), patients (50 mg (N 5)): 2 | Confirmed PR (Partial Response), patients (50 mg (N 5)): 0 | Confirmed SD (Stable Disease), % of patients (50 mg (N 5)): 60.0% | Confirmed SD (Stable Disease), patients (50 mg (N 5)): 3 | Disease Control (PR + PR + SD) Rate, % (50 mg (N 5)): 60.0% | Disease Control (PR + PR + SD) Rate, patients (50 mg (N 5)): 3 | NE (Not Evaluable), patients (50 mg (N 5)): 0 | Objective Response (CR + PR) Rate, patients (50 mg (N 5)): 0 | PD (Progressive Disease), % of patients (50 mg (N 5)): 40.0% | PD (Progressive Disease), patients (50 mg (N 5)): 2 | PR (Partial Response), patients (50 mg (N 5)): 0 | BOR Complete Response, (percent) (50 mg (n = 5)): (0) | BOR Complete Response, patients (50 mg (n = 5)): 0 | BOR Partial Response, (percent) (50 mg (n = 5)): (0) | BOR Partial Response, patients (50 mg (n = 5)): 0 | BOR Progressive Disease, (percent) (50 mg (n = 5)): (40) | BOR Progressive Disease, patients (50 mg (n = 5)): 2 | BOR Stable Disease, (percent) (50 mg (n = 5)): (60) | BOR Stable Disease, patients (50 mg (n = 5)): 3 | CR (Complete Response), patients (80 mg (N 9)): 0 | Confirmed CR (Complete Response), patients (80 mg (N 9)): 0 | Confirmed Disease Control (PR + PR + SD) Rate, % (80 mg (N 9)): 88.9% | Confirmed Disease Control (PR + PR + SD) Rate, patients (80 mg (N 9)): 8 | Confirmed NE (Not Evaluable), patients (80 mg (N 9)): 0 | Confirmed Objective Response (CR + PR) Rate, % (80 mg (N 9)): 11.1% | Confirmed Objective Response (CR + PR) Rate, patients (80 mg (N 9)): 1 | Confirmed PD (Progressive Disease), % of patients (80 mg (N 9)): 11.1% | Confirmed PD (Progressive Disease), patients (80 mg (N 9)): 1 | Confirmed PR (Partial Response), % of patients (80 mg (N 9)): 11.1% | Confirmed PR (Partial Response), patients (80 mg (N 9)): 1 | Confirmed SD (Stable Disease), % of patients (80 mg (N 9)): 77.8% | Confirmed SD (Stable Disease), patients (80 mg (N 9)): 7 | Disease Control (PR + PR + SD) Rate, % (80 mg (N 9)): 88.9% | Disease Control (PR + PR + SD) Rate, patients (80 mg (N 9)): 8 | NE (Not Evaluable), patients (80 mg (N 9)): 0 | Objective Response (CR + PR) Rate, % (80 mg (N 9)): 22.2% | Objective Response (CR + PR) Rate, patients (80 mg (N 9)): 2 | PD (Progressive Disease), % of patients (80 mg (N 9)): 11.1% | PD (Progressive Disease), patients (80 mg (N 9)): 1 | PR (Partial Response), % of patients (80 mg (N 9)): 22.2% | PR (Partial Response), patients (80 mg (N 9)): 2 | BOR Complete Response, (percent) (80 mg (n = 8)): (0) | BOR Complete Response, patients (80 mg (n = 8)): 0 | BOR Progressive Disease, (percent) (80 mg (n = 8)): (12.5) | BOR Progressive Disease, patients (80 mg (n = 8)): 1 | BOR Stable Disease, (percent) (80 mg (n = 8)): (62.5) | BOR Stable Disease, patients (80 mg (n = 8)): 5 | BOR Partial Response, (percent) (80 mg (n = 8), uPR): (25) | BOR Partial Response, patients (80 mg (n = 8), uPR): 2^1 | CR (Complete Response), patients (100 mg (N 6)): 0 | Confirmed CR (Complete Response), patients (100 mg (N 6)): 0 | Confirmed Disease Control (PR + PR + SD) Rate, % (100 mg (N 6)): 66.7% | Confirmed Disease Control (PR + PR + SD) Rate, patients (100 mg (N 6)): 4 | Confirmed NE (Not Evaluable), % of patients (100 mg (N 6)): 33.3% | Confirmed NE (Not Evaluable), patients (100 mg (N 6)): 2 | Confirmed Objective Response (CR + PR) Rate, % (100 mg (N 6)): 16.7% | Confirmed Objective Response (CR + PR) Rate, patients (100 mg (N 6)): 1 | Confirmed PD (Progressive Disease), patients (100 mg (N 6)): 0 | Confirmed PR (Partial Response), % of patients (100 mg (N 6)): 16.7% | Confirmed PR (Partial Response), patients (100 mg (N 6)): 1 | Confirmed SD (Stable Disease), % of patients (100 mg (N 6)): 50.0% | Confirmed SD (Stable Disease), patients (100 mg (N 6)): 3 | Disease Control (PR + PR + SD) Rate, % (100 mg (N 6)): 66.7% | Disease Control (PR + PR + SD) Rate, patients (100 mg (N 6)): 4 | NE (Not Evaluable), % of patients (100 mg (N 6)): 33.3% | NE (Not Evaluable), patients (100 mg (N 6)): 2 | Objective Response (CR + PR) Rate, % (100 mg (N 6)): 16.7% | Objective Response (CR + PR) Rate, patients (100 mg (N 6)): 1 | PD (Progressive Disease), patients (100 mg (N 6)): 0 | PR (Partial Response), % of patients (100 mg (N 6)): 16.7% | PR (Partial Response), patients (100 mg (N 6)): 1 | CR (Complete Response), patients (140 mg (N 6)): 0 | Confirmed CR (Complete Response), patients (140 mg (N 6)): 0 | Confirmed Disease Control (PR + PR + SD) Rate, % (140 mg (N 6)): 50.0% | Confirmed Disease Control (PR + PR + SD) Rate, patients (140 mg (N 6)): 3 | Confirmed NE (Not Evaluable), % of patients (140 mg (N 6)): 16.7% | Confirmed NE (Not Evaluable), patients (140 mg (N 6)): 1 | Confirmed Objective Response (CR + PR) Rate, patients (140 mg (N 6)): 0 | Confirmed PD (Progressive Disease), % of patients (140 mg (N 6)): 33.3% | Confirmed PD (Progressive Disease), patients (140 mg (N 6)): 2 | Confirmed PR (Partial Response), patients (140 mg (N 6)): 0 | Confirmed SD (Stable Disease), % of patients (140 mg (N 6)): 50.0% | Confirmed SD (Stable Disease), patients (140 mg (N 6)): 3 | Disease Control (PR + PR + SD) Rate, % (140 mg (N 6)): 50.0% | Disease Control (PR + PR + SD) Rate, patients (140 mg (N 6)): 3 | NE (Not Evaluable), % of patients (140 mg (N 6)): 16.7% | NE (Not Evaluable), patients (140 mg (N 6)): 1 | Objective Response (CR + PR) Rate, patients (140 mg (N 6)): 0 | PD (Progressive Disease), % of patients (140 mg (N 6)): 33.3% | PD (Progressive Disease), patients (140 mg (N 6)): 2 | PR (Partial Response), patients (140 mg (N 6)): 0 | BOR Complete Response, (percent) (140 mg (n = 1)): (0) | BOR Complete Response, patients (140 mg (n = 1)): 0 | BOR Partial Response, (percent) (140 mg (n = 1)): (0) | BOR Partial Response, patients (140 mg (n = 1)): 0 | BOR Progressive Disease, (percent) (140 mg (n = 1)): (100) | BOR Progressive Disease, patients (140 mg (n = 1)): 1

From patent US20240109972A1, “ANTIBODY AND TAXANE COMBINATION THERAPY” (Genmab A/S, priority 2020, published 2024)
